Counter-ions that a name gives are not always drawn. Like-named read-outs stand apart in the source and are kept apart here.
Target: T1, horseradish peroxidase (HRP) tagged delF508-CFTR (Homo sapiens, UniProt P13569, DEL508-508)
T1 construct: expressed in transfected cells
Assay: Measurement of delF508-CFTR-HRP surface expression in CFBE41o- cells;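 on DelF508-CFTR-HRP Amax %: percent efficacy relative to reference corrector lumacaftor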
Format: cell-based
Conditions: CFBE41o- cells; for Emax: read-out: DelF508-CFTR-HRP Amax %; for EC50: read-out: DelF508-CFTR-HRP EC50
Description: Measurement of delF508-CFTR-HRP Surface Expression in CFBE41o-Cells
This assay quantifies the cell surface expressions of the mutant CFTR channel using an extracellular HRP tag.
A cellular assay was developed to measure surface expression of horseradish peroxidase (HRP) tagged delF508-CFTR in the human bronchial epithelial immortalized CFBE41o-cell line (Phuan, P. W., et al, (2014) Molecular Pharmacology 86:42-51). Specifically, the HRP sequence was inserted into the fourth extracellular loop of delF508-CFTR and stably expressed in CFBE41o-cells. Cells were seeded in 384 well plate at a density of 5000 cells/well and incubated at 37° C. for 12 to 24 hours in medium (Gibco MEM #11095, 10% FBS, 10 mM HEPES, […], 200 μg/mL G418, 3 μg/mL Puromycin). The delF508-CFTR-HRP expression was induced with 500 ng/mL doxycycline (Sigma D-9891, dissolved in H2O and sterile filtered) in medium and the cells were incubated at 37° C. for 48h. Old medium was removed and fresh medium was added containing 500 ng/mL doxycycline and unknown test compound at required test concentration in DMSO, not exceeding 0.5% final DMSO concentration. The highest concentration tested was 10 μM with a 10-point concentration response curve using a 3-fold dilution. After addition of compounds, the cells were incubated for 24h at 37° C. On the final day, cells were washed four times in PBS containing 1 mM MgCl2 and 0.1 mM CaCl2. HRP-Substrate (SuperSignal ELISA Pico, Fisher #37069) 20 μl/well was added and the luminescence signal was determined (Viewlux, Perkin Elmer). Light was emitted upon addition of exogenous HRP-Substrate only when delF508-CFTR-HRP reached the cell surface and the HRP tag was accessible to the HRP-Substrate (note: HRP-Substrate cannot cross the lipid bilayer to reach delF508-CFTR-HRP misfolded within the cell).
The median activity for the lowest concentration of the compounds on each assay plate was calculated and this value was used to normalize the signal for each well on the respective plate. Three replicates at each concentrations for every compound were run to determine one EC50. The median value was determined and used to calculate compound activities as described below. Effective half maximal values (EC50) were calculated for each compound by performing logistic regression on measured dose-response data points using the equation:
[formula] where “Y” is the observed activity, “Bottom” is the lowest observed value, “Top” is the highest observed value, and the “Hill coefficient” gives the largest absolute value of the slope. The curve fitting is carried out by a curve fitting program implemented at GNF using Matlab (Mathworks).
The dose response curves also were used to calculate Fold Change (FC) using the equation: […]
Compound efficacy relative to the reference compound 3-(6-(1-(2,2-difluorobenzo[d][1,3]dioxol-5-yl)cyclopropane-1-carboxamido)-3-methylpyridin-2-yl)benzoic acid was determined using the following formula: […]

[1] = delF508-CFTR-HRP surface expression
[2] = mean of at least two replicates

T1 sequence (P13569 with tags, fused parts or gaps DEL508-508): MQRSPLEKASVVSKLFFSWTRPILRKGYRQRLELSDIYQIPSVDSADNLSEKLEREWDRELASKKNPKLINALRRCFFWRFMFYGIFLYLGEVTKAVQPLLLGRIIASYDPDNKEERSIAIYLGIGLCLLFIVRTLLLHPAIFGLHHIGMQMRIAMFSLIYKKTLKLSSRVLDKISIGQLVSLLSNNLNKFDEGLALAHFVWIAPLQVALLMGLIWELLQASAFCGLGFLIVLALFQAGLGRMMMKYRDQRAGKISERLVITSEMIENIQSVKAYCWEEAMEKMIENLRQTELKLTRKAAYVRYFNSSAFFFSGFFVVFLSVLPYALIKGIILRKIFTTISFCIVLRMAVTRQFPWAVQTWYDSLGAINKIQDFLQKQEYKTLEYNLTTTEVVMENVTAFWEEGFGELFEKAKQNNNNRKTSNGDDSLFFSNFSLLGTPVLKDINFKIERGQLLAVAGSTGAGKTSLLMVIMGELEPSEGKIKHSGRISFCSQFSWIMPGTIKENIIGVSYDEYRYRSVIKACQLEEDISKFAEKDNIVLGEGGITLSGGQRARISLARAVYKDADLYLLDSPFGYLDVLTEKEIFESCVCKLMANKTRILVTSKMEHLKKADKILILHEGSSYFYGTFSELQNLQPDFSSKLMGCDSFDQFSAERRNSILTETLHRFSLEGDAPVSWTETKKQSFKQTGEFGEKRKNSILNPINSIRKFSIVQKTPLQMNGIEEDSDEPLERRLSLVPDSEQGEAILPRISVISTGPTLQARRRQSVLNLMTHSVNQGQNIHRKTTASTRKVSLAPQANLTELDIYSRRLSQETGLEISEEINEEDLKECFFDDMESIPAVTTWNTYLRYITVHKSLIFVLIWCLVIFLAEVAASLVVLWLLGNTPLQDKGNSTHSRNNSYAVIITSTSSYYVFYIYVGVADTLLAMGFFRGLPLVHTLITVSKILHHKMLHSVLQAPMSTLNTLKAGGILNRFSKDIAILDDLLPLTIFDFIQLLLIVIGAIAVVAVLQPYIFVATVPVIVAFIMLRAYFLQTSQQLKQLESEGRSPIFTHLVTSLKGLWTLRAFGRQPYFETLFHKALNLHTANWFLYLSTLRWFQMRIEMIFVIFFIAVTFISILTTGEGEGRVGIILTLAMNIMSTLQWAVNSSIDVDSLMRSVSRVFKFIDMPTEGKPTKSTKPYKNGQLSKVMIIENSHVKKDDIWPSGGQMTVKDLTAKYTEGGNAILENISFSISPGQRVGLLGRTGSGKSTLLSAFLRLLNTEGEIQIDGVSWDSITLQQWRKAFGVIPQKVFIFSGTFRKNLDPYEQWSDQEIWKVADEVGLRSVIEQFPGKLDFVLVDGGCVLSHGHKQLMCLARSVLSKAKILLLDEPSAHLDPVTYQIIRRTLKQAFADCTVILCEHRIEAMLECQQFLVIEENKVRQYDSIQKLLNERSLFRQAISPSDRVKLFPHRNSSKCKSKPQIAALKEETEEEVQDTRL

Structure (SMILES)	Emax [1]	EC50 [1]	EC50 [2]	Emax (surface expression Amax)
Cc1ccccc1-c1nc(NS(=O)(=O)c2cccc(NC3CCC(C(=O)O)CC3)n2)ccc1C(F)(F)F (stereo not drawn) [Example 372, 4-((6-(N-(6-(o-tolyl)-5-(trifluoromethyl)pyridin-2-yl)sulfamoyl)pyridin-2-yl)amino)cyclohexanecarboxylic Acid]	554%	2250 nM		
O=S(=O)(Nc1ccc(Cl)c(-c2ccc(F)cc2Cl)n1)c1cccc(N2CCNCC2)n1 [Example 157, N-(5-chloro-6-(2-chloro-4-fluorophenyl)pyridin-2-yl)-6-(piperazin-1-yl)pyridine-2-sulfonamide]	180%	4280 nM		
Nc1cccc(S(=O)(=O)Nc2ccc(Cl)c(-c3ccccc3Cl)n2)n1 [Example 24, 6-amino-N-(5-chloro-6-(2-chlorophenyl)pyridin-2-yl)pyridine-2-sulfonamide]	485%	1460 nM		
COc1ccc(Cl)c(-c2nc(NS(=O)(=O)c3cccc(N4CCC(C)(C(=O)O)CC4)n3)ccc2Cl)c1 [Example 244, 1-(6-(N-(5-chloro-6-(2-chloro-5-methoxyphenyl)pyridin-2-yl)sulfamoyl)pyridin-2-yl)-4-methylpiperidine-4-carboxylic Acid]	222%	3650 nM		
COc1ccccc1-c1nc(NS(=O)(=O)c2cccc(N)n2)ccc1Cl [Example 76, 6-amino-N-(5-chloro-6-(2-methoxyphenyl)pyridin-2-yl)pyridine-2-sulfonamide]	156%	2300 nM		
Cc1ccccc1-c1nc(NS(=O)(=O)c2cccc(N3CCN(C(=O)OC(C)(C)C)[C@H](C(=O)O)C3)n2)ccc1C(F)(F)F [Example 334, (2S)-1-[(tert-butoxy)carbonyl]-4-(6-{[6-(2-methylphenyl)-5-(trifluoromethyl)pyridin-2-yl]sulfamoyl}pyridin-2-yl)piperazine-2-carboxylic Acid]	164%	2470 nM		
Cc1ccccc1-c1nc(NS(=O)(=O)c2cccc(N[C@@H]3CCNC[C@@H]3O)n2)ccc1C(F)(F)F (relative stereo) [Example 113, 6-(((3S,4R)-3-hydroxypiperidin-4-yl)amino)-N-(6-(o-tolyl)-5-(trifluoromethyl)pyridin-2-yl)pyridine-2-sulfonamide Hydrochloride]	72%	4220 nM		
CC(C)COc1ccccc1-c1nc(NS(=O)(=O)c2cccc(N3CCC[C@@](C)(C(=O)O)C3)n2)ccc1C(F)(F)F [Example 396, (R)-1-(6-(N-(6-(2-isobutoxyphenyl)-5-(trifluoromethyl)pyridin-2-yl)sulfamoyl)pyridin-2-yl)-3-methylpiperidine-3-carboxylic Acid]			845 nM	
CC(C)c1ccccc1-c1nc(NS(=O)(=O)c2cccc(N3CCC[C@@](C)(C(=O)O)C3)n2)ccc1Cl [Example 392, (R)-1-(6-(N-(5-chloro-6-(2-isopropylphenyl)pyridin-2-yl)sulfamoyl)pyridin-2-yl)-3-methylpiperidine-3-carboxylic Acid]			527 nM	460%
Cc1ccccc1-c1nc(NS(=O)(=O)c2cccc(N[C@H]3C[C@H](C(=O)O)C3)n2)ccc1C(F)(F)F [Example 355, (1r,3r)-3-((6-(N-(6-(o-tolyl)-5-(trifluoromethyl)pyridin-2-yl)sulfamoyl)pyridin-2-yl)amino)cyclobutanecarboxylic Acid]	140%	3690 nM		
Nc1cccc(S(=O)(=O)Nc2ccc(Cl)c(-c3ccc(F)cc3C3CC3)n2)n1 [Example 27, 6-amino-N-(5-chloro-6-(2-cyclopropyl-4-fluorophenyl)pyridin-2-yl)pyridine-2-sulfonamide]	430%	1720 nM		
Cc1ccccc1-c1nc(NS(=O)(=O)c2cccc(N)n2)ccc1Br [Example 23, 6-amino-N-(5-bromo-6-(o-tolyl)pyridin-2-yl)pyridine-2-sulfonamide]	486%	1880 nM		
O=S(=O)(Nc1ccc(Cl)c(-c2ccccc2Cl)n1)c1cccc(N2CCNCC2)n1 [Example 156, N-(5-chloro-6-(2-chlorophenyl)pyridin-2-yl)-6-(piperazin-1-yl)pyridine-2-sulfonamide]	178%	4030 nM		
Cc1ccc(C#N)cc1-c1nc(NS(=O)(=O)c2ccnc(N)c2)ccc1C(F)(F)F [Example 64, 2-amino-N-(6-(5-cyano-2-methylphenyl)-5-(trifluoromethyl)pyridin-2-yl)pyridine-4-sulfonamide]	223%	1960 nM		
Cc1ccc(C(F)(F)F)cc1-c1nc(NS(=O)(=O)c2ccnc(N)c2)ccc1Cl [Example 49, 2-amino-N-(5-chloro-6-(2-methyl-5-(trifluoromethyl)phenyl)pyridin-2-yl)pyridine-4-sulfonamide]	333%	3050 nM		
CC1(C(=O)O)CCN(c2cccc(S(=O)(=O)Nc3ccc(Cl)c(-c4ccccc4Cl)n3)n2)CC1 [Example 239, 1-(6-(N-(5-chloro-6-(2-chlorophenyl)pyridin-2-yl)sulfamoyl)pyridin-2-yl)-4-methylpiperidine-4-carboxylic Acid]	280%	4510 nM		

The next lines start with the values.

Emax [1]	EC50 [1]	EC50 [2]	Emax (surface expression Amax)	Structure (SMILES)
		2660 nM	42.3%	CCc1ccccc1-c1nc(S(=O)(=O)Nc2cccc(N3CCC(C)(C(=O)O)CC3)n2)ccc1C(F)(F)F [Example 380, 1-(6-(6-(2-ethylphenyl)-5-(trifluoromethyl)pyridine-2-sulfonamido)pyridin-2-yl)-4-methylpiperidine-4-carboxylic Acid]
546%	670 nM			Cc1ccccc1-c1nc(NS(=O)(=O)c2cccc(N3CCC34CN(C(=O)OC(C)(C)C)C4)n2)ccc1C(F)(F)F [Example 301, tert-butyl 1-(6-(N-(6-(o-tolyl)-5-(trifluoromethyl)pyridin-2-yl)sulfamoyl)pyridin-2-yl)-1,6-diazaspiro[3.3]heptane-6-carboxylate]
		1600 nM	639%	CCCC1(C(=O)O)CCCN(c2cccc(S(=O)(=O)Nc3ccc(C(F)(F)F)c(-c4ccccc4C)n3)n2)C1 (stereo not drawn) [Example 458, 3-propyl-1-(6-(N-(6-(o-tolyl)-5-(trifluoromethyl)pyridin-2-yl)sulfamoyl)pyridin-2-yl)piperidine-3-carboxylic Acid]
		1050 nM		CCc1ccccc1-c1nc(NS(=O)(=O)c2cccc(N3CCC[C@@](C)(C(=O)O)C3)n2)ccc1C(F)(F)F [Example 394, (R)-1-(6-(N-(6-(2-ethylphenyl)-5-(trifluoromethyl)pyridin-2-yl)sulfamoyl)pyridin-2-yl)-3-methylpiperidine-3-carboxylic Acid]
	738 nM			CC(C)c1ccccc1-c1nc(NS(=O)(=O)c2cccc(N3CCCC(C)(C(=O)O)C3)n2)ccc1C(F)(F)F (stereo not drawn) [Example 377, 1-(6-(N-(6-(2-isopropylphenyl)-5-(trifluoromethyl)pyridin-2-yl)sulfamoyl)pyridin-2-yl)-3-methylpiperidine-3-carboxylic Acid]
		778 nM	729%	CC1(C(=O)O)CCCN(c2cccc(S(=O)(=O)Nc3ccc(C(F)(F)F)c(-c4ccccc4C4CC4)n3)n2)C1 (stereo not drawn) [Example 402, 1-(6-(N-(6-(2-cyclopropylphenyl)-5-(trifluoromethyl)pyridin-2-yl)sulfamoyl)pyridin-2-yl)-3-methylpiperidine-3-carboxylic Acid]
166%	1890 nM			Cc1ccccc1-c1nc(NS(=O)(=O)c2cccc(N[C@H]3C[C@](C)(C(=O)O)C3)n2)ccc1C(F)(F)F [Example 365, (1r,3s)-1-methyl-3-[(6-{[6-(2-methylphenyl)-5-(trifluoromethyl)pyridin-2-yl]sulfamoyl}pyridin-2-yl)amino]cyclobutane-1-carboxylic Acid]
		1950 nM	392%	Cc1ccccc1-c1nc(NS(=O)(=O)c2cccc(N[C@@H]3CCC[C@H](C(=O)O)C3)n2)ccc1C(F)(F)F (relative stereo) [Example 461, (1,3-cis)-3-((6-(N-(6-(o-tolyl)-5-(trifluoromethyl)pyridin-2-yl)sulfamoyl)pyridin-2-yl)amino)cyclohexanecarboxylic Acid]
